Reference: patent EP4813463A2, “TYK2 INHIBITORS AND COMPOSITIONS AND METHODS THEREOF” (Lynk Pharmaceuticals Co. Ltd., priority 2023, dated 2024)
Read-outs that look alike come from different tables or passages of the source.

How the values were obtained:
[1] = biological target: T1, TYK2-JH2 domain (Homo sapiens, UniProt P29597); experiment: Binding activity test for JH2 domain of TYK2 (Tb-antibody/tracer FRET); details: JH2 domain enzyme; 60 min at 25°C, then 4°C overnight; read-out: TYK2 JH2 Binding IC50
T1 construct: JAK1-JH2 domain or TYK2-JH2 domain enzyme in assay buffer
T1 sequence (P29597 589-875 limits assumed): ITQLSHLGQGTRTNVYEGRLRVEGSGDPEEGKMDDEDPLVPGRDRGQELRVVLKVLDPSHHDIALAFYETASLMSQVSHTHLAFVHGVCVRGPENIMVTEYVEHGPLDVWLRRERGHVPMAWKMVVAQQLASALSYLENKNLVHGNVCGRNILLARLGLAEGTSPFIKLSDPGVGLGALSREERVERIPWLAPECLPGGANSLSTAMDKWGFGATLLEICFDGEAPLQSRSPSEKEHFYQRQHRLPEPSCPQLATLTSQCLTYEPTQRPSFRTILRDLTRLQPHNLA
Experimental: Binding Activity test for JH2 domain of JAK1 and TYK2 […] Add 8μL/well in echo source plate, echo will add 75nL/well with 3-fold serial dilution for 11 points in assay plate. 75nL DMSO for high control and low control. […] For low control, add 5μL/well assay buffer. And then spin down at 1000rpm and centrifuge for 30 seconds. After enzyme system prepared, add 5μL of Tb-antibody solution into each well of assay plate. Spin down at 1000 rpm and centrifuge for 30sec. After Tb-antibody added, also add 5μL of tracer into the assay plate. Spin down at 1000rpm and centrifuge for 30sec. Incubate for […] at 25°C firstly and then continue to incubate the plate at 4°C overnight. Read by envision in FRET mode. The Luminescence value was recorded by a multi-label reader Envision (PerkinElmer). […] Table 2. IC50 on JH2 domain activity (nM)

[2] = test system: Ba/F3-FL-TYK2-P760L cells; experiment: Anti-proliferative assay in engineered Ba/F3 cells (Cell-Titer Glo, 72 h); format: cell-based; details: 72 h compound treatment, concentration that causes 50% growth inhibition, read-out: Baf3-FL-T2P760L
Experimental: Dimerization domain of Tel protein fused with JAK kinase domain was permanently transduced into Ba/F3 cells, whose proliferation is dependent on JAK activity in the absence of IL-3 induction. These engineered Ba/F3-FL-TYK2-P760L cells were used to monitor JAK inhibitory activities of the compounds in the cellular. Ba/F3 cells were cultured in RPMI-1640 (Corning) containing 10% fetal bovine serum. Cells were seeded at 2000/well of white flat bottom 96-well plates. The well containing medium only was used as background control. After 24h growth, cells were treated with compounds. The test compounds were dissolved in DMSO to a stock concentration of 20 mM. 3-fold serially diluted compounds for 9 concentrations with top concentration of 20 µM was added into the each well. The final DMSO concentration was 0.1%. The cells continued to grow at 37°C in 5% CO2 for 72 h after compound treatment. The viability was measured by cellular ATP determination using the Cell-Titer Glo luciferase reagent (Promega). The Luminescence value was recorded by a multi-label reader Envision (PerkinElmer). Inhibition Rate was calculated relative to vehicle (DMSO) treated control wells using following formula: % Inhibition = 100−(RLU_compound−RLU_blank)/(RLU_control−RLU_blank) × 100% [formula] wherein • RLU_compound = the relative light unit of cells treated with test compounds • RLU_blank = the relative light unit of medium with DMSO only • RLU_control = the relative light unit of cells treated with DMSO only
Table 4. Ba/F3-FL-TYK2-P760L Cells IC50 Values of Exemplary Compounds

SMILES	IC50 [1]	IC50 [2]	IC50 ([2]; Mus musculus, BaF3, 72 h)
CCC(F)(F)c1cnc(NC(=O)C2CC2)cc1Nc1nn(C)c2ccc(C(O)C(F)(F)F)c(OC)c12 (single isomer, unassigned) [Example 193B, (R*)-N-(5-(1,1-Difluoropropyl)-4-((4-methoxy-1-methyl-5-(2,2,2-trifluoro-1-hydroxyethyl)-1H-indazol-3-yl)amino)pyridin-2-yl)cyclopropanecarboxamide]	1.18 nM	45 nM	
[2H]C([2H])([2H])NC(=O)c1cnc(NC(=O)C2CC2)cc1Nc1nn(C)c2ccc([C@@H](OC)C(F)(F)F)c(OC)c12 [Example 46B, (R)-6-(cyclopropanecarboxamido)-4-((4-methoxy-1-methyl-5-(2,2,2-trifluoro-1-methoxyethyl)-1H-indazol-3-yl)amino)-N-(methyl-d3)nicotinamide]	0.18 nM		11.2 nM
COC(=O)c1cnc(NC(=O)C2CC2)cc1Nc1cccc(-c2cnn(C)n2)c1OC [Example 63, Methyl 6-(cyclopropanecarboxamido)-4-((2-methoxy-3-(2-methyl-2H-1,2,3-triazol-4-yl)phenyl)amino)nicotinate]	0.285 nM		48.4 nM
COC(=O)c1cnc(NC(=O)C2CC2)cc1Nc1nn(C)c2ccc(C(OC)C3(F)CC3)c(OC)c12 (stereo not shown) [Example 74, Methyl 6-(cyclopropanecarboxamido)-4-((5-((1-fluorocyclopropyl) (methoxy)methyl)-4-methoxy-1-methyl-1H-indazol-3-yl)amino)nicotinate]	0.18 nM		30.7 nM
COCCn1nc(Nc2cc(NC(=O)C3CC3)ncc2C(=O)OC)c2c(OC)c(C(OC)C(F)(F)F)ccc21 (stereo not shown) [Example 78, Methyl 6-(cyclopropanecarboxamido)-4-((4-methoxy-1-(2-methoxyethyl)-5-(2,2,2-trifluoro-1-methoxyethyl)-1H-indazol-3-yl)amino)nicotinate]	0.17 nM		5.26 nM
COC(=O)c1cnc(NC(=O)C2CC2)cc1Nc1csc2ccc(C(OC)C(F)(F)F)c(OC)c12 (stereo not shown) [Example 111, Methyl 6-(cyclopropanecarboxamido)-4-((4-methoxy-5-(2,2,2-trifluoro-1-methoxyethyl)benzo[b]thiophen-3-yl)amino)nicotinate]	0.364 nM		19 nM
COC(=O)c1cnc(NC(=O)C2CC2)cc1Nc1nn(C)c2ccc(C(C)OC)c(OC)c12 (stereo not shown) [Example 112, Methyl 6-(cyclopropanecarboxamido)-4-((4-methoxy-5-(1-methoxyethyl)-1-methyl-1H-indazol-3-yl)amino)nicotinate]	0.162 nM		11.4 nM
COC(=O)c1cnc(NC(=O)C2CC2)cc1Nc1nn(C)c2ccc(C(OC)C3CC3)c(OC)c12 (stereo not shown) [Example 114, Methyl 6-(cyclopropanecarboxamido)-4-((5-(cyclopropyl(methoxy)methyl)-4-methoxy-1-methyl-1H-indazol-3-yl)amino)nicotinate]	0.209 nM		21.9 nM

Molecules with a lower IC50 [1], results first:

IC50 [1]	IC50 [2]	IC50 ([2]; Mus musculus, BaF3, 72 h)	SMILES
0.14 nM		2.65 nM	[2H]C([2H])([2H])NC(=O)c1cnc(NC(=O)C2CC2)cc1Nc1csc2ccc(C(OC)C(F)(F)F)c(OC)c12 (stereo not shown) [Example 72, 6-(Cyclopropanecarboxamido)-4-((4-methoxy-5-(2,2,2-trifluoro-1-methoxyethyl)benzo[b]thiophen-3-yl)amino)-N-(methyl-d3)nicotinamide]
0.14 nM		7.56 nM	CONC(=O)c1cnc(NC(=O)C2CC2)cc1Nc1nn(C)c2ccc(C(OC)C(F)(F)F)c(OC)c12 (stereo not shown) [Example 73, 6-(Cyclopropanecarboxamido)-N-methoxy-4-((4-methoxy-1-methyl-5-(2,2,2-trifluoro-1-methoxyethyl)-1H-indazol-3-yl)amino)nicotinamide]
0.09 nM		3.49 nM	COC(=O)c1cnc(NC(=O)[C@@H]2C[C@@H]2F)cc1Nc1nn(C)c2ccc([C@H](OC)C(F)(F)F)c(OC)c12 [Example 76, Methyl 6-((1S,2S)-2-fluorocyclopropane-1-carboxamido)-4-((4-methoxy-1-methyl-5-((S)-2,2,2-trifluoro-1-methoxyethyl)-1H-indazol-3-yl)amino)nicotinate]
